For orientation: IC50 means the point on the concentration scale where inhibition reaches its midpoint. For orientation: Vmax means the top rate of the reaction or transport when substrate is in excess.

The results in this text go back to publication PMC6637216 (BioImpacts : BI, 2019).

Assay [1] concerns the target T1, AChE from Electrophorus electricus (electric eel) (Electrophorus electricus, UniProt O42275). Nature of the assay: Ellman colorimetric AChE inhibition and kinetics in aqueous phosphate buffer. It counts as biochemical. The following applies: for nH (Hill coefficient) / Vmax / α / α': aqueous buffer.
The target of assay [2] is T1, AChE from Electrophorus electricus (electric eel). In words: Ellman AChE inhibition and kinetics in HSA matrix. The format is biochemical. The following applies: for ΔrIC50, relative decrease in inhibition potency in HSA versus buffer: (IC50(HSA)-IC50(Buffer))/IC50(Buffer)x100; for Vmax / α / α': HSA medium (in parentheses); for nH (Hill coefficient): HSA medium, values in parentheses.

Assay [3] deals with AChE (Electrophorus electricus, UniProt O42275). In words: ThT displacement from AChE. The format is binding. The following applies: quenching of ThT-AChE fluorescence, 0.1 M phosphate buffer pH 8.0.

Each structure is given as a SMILES string. Several values for one entry are separate records, joined by “and”; a condition that tells them apart may be missing. Equal entries are not always repeated.

T1 sequence (O42275 24-633): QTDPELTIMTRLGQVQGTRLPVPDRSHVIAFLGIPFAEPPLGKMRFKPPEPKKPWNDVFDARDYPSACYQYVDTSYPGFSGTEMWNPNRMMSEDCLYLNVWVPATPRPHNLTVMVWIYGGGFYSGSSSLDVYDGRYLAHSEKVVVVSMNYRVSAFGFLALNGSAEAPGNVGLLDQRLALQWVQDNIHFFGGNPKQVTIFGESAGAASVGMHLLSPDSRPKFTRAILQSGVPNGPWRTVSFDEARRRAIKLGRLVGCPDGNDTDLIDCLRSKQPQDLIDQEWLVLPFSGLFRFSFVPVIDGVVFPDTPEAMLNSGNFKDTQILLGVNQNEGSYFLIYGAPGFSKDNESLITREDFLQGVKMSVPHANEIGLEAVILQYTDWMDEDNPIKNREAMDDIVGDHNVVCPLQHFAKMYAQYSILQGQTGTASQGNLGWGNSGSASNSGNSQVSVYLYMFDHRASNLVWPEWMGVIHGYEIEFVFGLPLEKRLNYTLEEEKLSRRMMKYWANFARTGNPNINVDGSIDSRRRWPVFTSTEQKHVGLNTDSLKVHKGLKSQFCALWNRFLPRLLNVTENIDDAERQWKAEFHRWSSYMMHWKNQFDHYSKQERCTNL
Sequence of AChE (O42275 24-633): as above

Consider `Cc1cc(=O)c2ccc(N)cc2o1` [AMC, 7-amino-2-methylchromone], for which, in assay [1], the IC50 turned out to be 103 ± 11.9 nM and the “nH (Hill coefficient)” value came out at 1.45 ± 0.1. Moreover, in assay [1] (inhibitor 5 nM), the Vmax was 670 ± 26 nM/s, the α is reported as 1.2 (1.2) and the “α'” value was 1.2 (1.2). Moreover, in assay [1] (inhibitor 10 nM), the Vmax amounted to 560 ± 39 nM/s, the α was determined as 1.4 and the “α'” value is recorded as 1.4 (1.4). Further, in assay [2], the IC50 was 115 nM; the “ΔrIC50, relative decrease in inhibition potency in HSA versus buffer” value was ~ 5% and 5%; the “nH (Hill coefficient)” value worked out at 1.52±0.1. Further, in assay [2] (inhibitor 5 nM), the Vmax was determined as 711 ± 47 nM/s, the α is 1.2 (1.2) and the “α'” value is reported as 1.2 (1.2). Also, in assay [2] (inhibitor 10 nM), the Vmax turned out to be 557 ± 39 nM/s, the α is 1.5 and the “α'” value is given as 1.4 (1.4). Moreover, the “KSV (Stern-Volmer constant)” value in assay [3] came out at 230000 M⁻¹.
Regarding `N#Cc1coc2ccccc2c1=O` [CyC, 3-cyanochromone], the IC50 in assay [1] is 85.1 ± 6.7 nM; in assay [2], 113 nM. Moreover, the “nH (Hill coefficient)” value in assay [1] was 1.51 ± 0.1; in assay [2], 1.89±0.17. The Vmax in assay [1] (inhibitor 5 nM) stood at 631 ± 21 nM/s; in assay [1] (inhibitor 10 nM), 538 ± 31 nM/s; in assay [2] (inhibitor 5 nM), 730 ± 17 nM/s; in assay [2] (inhibitor 10 nM), 671 ± 30 nM/s. In addition, the α in assay [1] (inhibitor 5 nM) is listed as 1.3; in assay [1] (inhibitor 10 nM) it was 1.5; in assay [2] (inhibitor 5 nM) it was 1.1; in assay [2] (inhibitor 10 nM) it was 1.2. The “α'” value in assay [1] (inhibitor 5 nM) came to 1.3; in assay [1] (inhibitor 10 nM), 1.5; in assay [2] (inhibitor 5 nM) it was 1.1; in assay [2] (inhibitor 10 nM), 1.2. Further, the “ΔrIC50, relative decrease in inhibition potency in HSA versus buffer” value in assay [2] is ~ 32% and 32%. Further, the “KSV (Stern-Volmer constant)” value in assay [3] came out at 370000 M⁻¹.
